Assay results published in patent US6844429B2, “Fullerene derivative and composition comprising the same” (San-Ei Gen F.F.I., priority 2001, dated 2005).

Columns and labels:
[1] = Quantum yield measurement of singlet oxygen (DPBF absorbance decay under light irradiation); assay type: physicochemical; details: singlet oxygen quantum yield relative to tetraphenylporphyrin; DMSO, 27° C., 6.5×10^−7 M fullerene derivative, DPBF absorbance at 418 nm
Method: A DMSO solution containing 5.5×10^−5 M of 1,3-diphenylisobenzofuran (DPBF) was prepared, maintaining the water temperature in a waterbath at 27° C. 3 mL of the DMSO solution was poured into a quartz cell and a DMSO solution containing 1.5×10^−5 M of fullerene derivatives was added so that the concentration of the resulting solution is set to 6.5×10^−7 M. Subsequently, oxygen was bubbled through the solution for one minute or more. The cell was set in position within the waterbath, stirred using a multistirrer and irradiated with light every ten seconds to measure the absorbance of the DPBF at 418 nm. Natural logarithm of the absorbance thus measured was plotted against time of light irradiation to find the gradient. Thus, a relative scale with respect to the quantum yield of tetraphenylporphyrin (φ^1O2) was calculated.

HeLa cells = test: Phototoxicity test: viability of HeLa cells by MTT assay, without and with light irradiation; assay type: cell-based
Method: The cytotoxicity of (Mal-(CH2)2—N)C60 (hereafter, referred to as Compound A) obtained in Example 12 was evaluated by the viability of HeLa cells using an MTT assay (Carmichal, J., W. G. DeGraff, A. F.Gazdar, J. D. Minna and J. B. Mitchell, Cancer Res., 1987, 47, 936-942). HeLa cells (5×10^3 cells/well) were incubated in a Dulbecco's modified Eagle's medium (DMEM) containing 10% fetal bovine serum (FBS) on a 96-well plate in 5% CO2 at 37° C. for 24 hours. After washing with phosphate buffered saline (PBS), 100 μl of (Mal-(CH2)2—N) C60 (DMEM) (−) solution (25 μM) as a fullerene derivative of the present invention was added to the cells, which were incubated for two hours. The cells were washed with PBS, replaced with 100 μl of DMEM(+) and theie viability was measured using the MTT assay. The viability was determined by measuring the absorbance at 570 nm (OD570). […] The ratio was calculated by the following formula: Cell survival ratio (%)=(OD 570 in the presence of Compound A/OD 570 in the absence of Compound A)×100. A cell survival ratio of 100% means the absence of cytotoxicity.
HeLa cells (5×10^3 cells/well) were treated in the same the manner as in the above. Compound A was added to the cells and the resulting cell was irradiated with a 500 W halogen lamp for 8 minutes. After 24 hours' incubation, the supernatant was removed and formazan was dissolved in 100 μl of DMSO. Thereafter, the viability was determined by measuring the absorbance at 570 nm (OD570). […] The ratio was calculated by the following formula: Cell survival ratio (%)=(OD 570 in the presence of Compound A with irradiation/OD 570 in the absence of Compound A with irradiation)×100.
Evaluations were made in the same manner as in Test Example 2 except that each of (Mal-(CH2)2—N)C60 (Compound A) obtained in Example 12 and (D-Xyl-(CH2)2—N)C60(hereafter, referred to as Compound B) obtained in Example 14 was used in amounts 1, 5, 10, 25 and […]. The obtained results of the cytotoxicities of Compounds A and B are shown in FIGS. 2 and 3, respectively.

Compound	Relative scale for φ^1O2 [1]	also measured
N,N′-bis[2-(β-D-galactopyranosyloxy)ethyl] [5,6]-diazafulleroid [(D-Gal-(CH2)2—N)2C60]	0.7	–
N-[2-(α-D-mannopyranosyloxy)ethyl] [5,6]-azafulleroid [(D-Man-(CH2—N)C60]	0.5	–
N-[2-(β-(α-D-glucopyranosyl(1-4)-D-glucopyranosyloxy)ethyl) [5,6]-azafulleroid [(Mal-(CH2)2—N)C60]	0.7	toxicity, share of the cells (photocytotoxicity) (HeLa cells; 10 μM, light irradiation as in Test Example 2, FIG. 2): about 50%; cytotoxicity (cell survival ratio) with light irradiation (HeLa cells; 25 μM, 500 W halogen lamp for 8 minutes, 24 hours' incubation, MTT OD570, FIG. 1): cytotoxicity is observed; cytotoxicity (cell survival ratio) without light irradiation (HeLa cells; 25 μM, two hours incubation, no light irradiation, MTT OD570, FIG. 1): cytotoxicity is not observed
N-[2-(2,3,4,6-tetra-O-acetyl-α-D-mannopyranosyloxy)ethyl] [5,6]-azafulleroid [(D-AcMan-(CH2)2—N)C60]	0.8	–
N-[2-(2,3,4,6-tetra-O-acetyl-β-D-glucopyranosyloxy)ethyl][5,6]-azafulleroid [(D-AcGlc-(CH2)2—N)C60]	0.6	–
N,N′-bis[2-(α-D-mannopyranosyloxy)ethyl] [5,6]-diazafulleroid [(D-Man-(CH2)2—N)2C60]	0.5	–
N-[2-(2,3,4-tri-O-acetyl-β-D-xylopyranosyloxy)ethyl] [5,6]-azafulleroid [(D-AcXyl-(CH2)2—N)C60]	0.4	–
N-[2-(β-D-glucopyranosyloxy)ethyl] [5,6]-azafulleroid [(D-Glc-(CH2)2—N)C60]	0.6	–
N, N′-bis[2-(2,3,6,8,9,13-hepta-O-acetyl-β-(α-D-glucopyranosyl (1-4)-D-glucopyranosyloxy)ethyl) [5,6]-diazafulleroid [(AcMal-(CH2)2—N)2C60]	0.6	–
OCC1OC(OCCn2c3c4c5c6c7c8c9c%10c%11c%12c%13c%10c%10c8c8c%14c%10c%10c%13c%13c%15c%12c%12c%16c%11c%11c9c7c7c9c%11c%16c%11c%16c%12c%15c%12c%15c%13c%10c%10c%14c(c4c86)c4c%10c%15c6c%12c%16c8c%11c9c(c75)c3c8c6c42)C(O)C(O)C1O [(D-Gal-(CH2)2—N)C60, N-[2-(β-D-galactopyranosyloxy)ethyl][5,6]-azafulleroid]	0.7	–
N,N′-bis[2-(β-(α-D-glucopyranosyl(1-4)-D-glucopyranosyloxy)ethyl) [5,6]-diazafulleroid [(Mal-(CH2)2—N)2C60]	0.8	–
N-[2-(2,3,6,8,9,13-hepta-O-acetyl-β-(α-D-glucopyranosyl (1-4)-D-glucopyranosyloxy)ethyl) [5,6]-azafulleroid [(AcMal-(CH2)2—N)C60]	0.7	–
N,Nα-bis[2-(2,3,4-tri-O-acetyl-β-D-xylopyranosyloxy)ethyl] [5,6]-diazafulleroid [(D-AcXyl-(CH2)2—N)2C60]	0.3	–
N, N′-bis[2-(β-D-glucopyranosyloxy)ethyl][5,6]-diazafulleroid [(D-Glc-(CH2)2—N)2C60]	0.6	–
N,N′-bis[2-(β-D-xylopyranosyloxy)ethyl] [5,6]-diazafulleroid [(D-Xyl-(CH2)2—N)2C60]	0.3	–
N-[2-(2,3,4,6-tetra-O-acetyl-β-D-galactopyranosyloxy)ethyl] [5,6]-azafulleroid [(D-AcGal-(CH2)2—N)C60]	0.7	–
OC1COC(OCCn2c3c4c5c6c7c8c9c%10c%11c%12c%13c%10c%10c8c8c%14c%10c%10c%13c%13c%15c%12c%12c%16c%11c%11c9c7c7c9c%11c%16c%11c%16c%12c%15c%12c%15c%13c%10c%10c%14c(c4c86)c4c%10c%15c6c%12c%16c8c%11c9c(c75)c3c8c6c42)C(O)C1O [(D-Xyl-(CH2)2—N)C60, N-[2-(β-D-xylopyranosyloxy)ethyl][5,6]-azafulleroid]	0.3	–
N, Nα-bis[2-(2,3,4,6-tetra-O-acetyl-β-D-glucopyranosyloxy)ethyl] [5,6]-diazafulleroid [(D-AcGlc-(CH2)2—N)2C60]	0.5	–
N, N′-bis[2-(2,3,4,6-tetra-O-acetyl-β-D-galactopyranosyloxy)ethyl] [5,6]-diazafulleroid [(D-AcGal-(CH2)2—N)2C60]	0.5	–
N, N′-bis [2-(2,3,4,6-tetra-O-acetyl-α-D-mannopyranosyloxy)ethyl] [5,6]-diazafulleroid [(D-AcMan-(CH2)2—N)2C60]	0.7	–
